Measurements taken from US11510983B2 (priority 2013, dated 2022).

Columns and labels:
[1] = system: A/California/7/2009 (H1N1); set-up: species or system BALB/c mice; conditions: mouse, in vivo
[2] = system: A/California/7/2009 (H1N1); set-up: species or system BALB/c mice; conditions: mouse, in vivo; remark: listed apart in the source
[3] = pig, in vivo
[4] = set-up: species or system mice; conditions: mouse, in vivo

## CC(C)Cn1cnc2c(N)nc3ccccc3c21 [IMIQ, 1-(2-Methylpropyl)-1H-imidazo[4,5-c]quinolin-4-amine]
[1]
  time after which HAI titer started to decline to levels of non-adjuvanted flu vaccine: > 3 months
[2]
  elevation of IgG2a production: 5 fold
  type of immune response by IgG2a/IgG1 ratio: Th1-biased immune response
[3]
  skin response at the injection site: Diminished skin irritation

## OVA: protein model antigen ovalbumin
[4]
  raise of specific antibody titers in the presence vs. absence of laser pre-treatment: 6 folds
